According to patent publication US20140249097A1, “Inhibition of HIF-1 activation for Anti-Tumor and Anti-Inflammatory responses” (priority 2010, published 2014):
Structures can show the parent of a compound that is named as a salt.

Assays:
[1] = test system: perfused tumor fraction; experiment: Hoechst 33342 labeling of tumor perfusion in orthotopic 4T1ODD-luc tumors; type: in vivo, mice; details: doxorubicin-treated vs control tumors
Method: (§1) Five mice from a doxorubicin-treated group or a control group that received saline were sacrificed on days 0, 1, 4, 7 and 16. The hypoxia marker pimonidazole (70 mg/kg i.p., NPI, Raleigh, N.C., United States of America) and the perfusion marker dye Hoechst 33342 (1 mg/mouse i.v., Sigma-Aldrich) were administered as previously described (Cao et al., 2005). Upon excision, tumors were snap-frozen in liquid nitrogen, stored at −80° C., and cut into 10 μm frozen sections. HIF-1α fluorescent staining was performed with anti-HIF-1α antibody (Novus). Direct pimonidazole labeling was performed using Hypoxyprobe (mouse monoclonal IgG1, NPI, Raleigh, N.C., United States of America) and Zenon Alexa Fluor 555 mouse IgG labeling kit (Invitrogen). Entire tumor sections were imaged by scanning fluorescent microscopy. Individual scanned images were then reconstructed into one composite image of the entire section by Metamorph. […] Eight random fields (10×) per frozen section were analyzed to determine the mean tumor vascular fraction as the percentage of vessel area in total tumor area in each field. Cell proliferation was determined by immunostaining with a rabbit polyclonal anti-Ki67 antibody (ab15580, 1:100 dilution, Abcam, Cambridge, Massachusettes, United States of America) and an Alexa 594-conjugated goat anti-rabbit IgG antibody (1:300 dilution, Invitrogen). […]

[2] = test system: iNOS; experiment: Real-time PCR of iNOS mRNA in 4T1ODD-luc cells; type: cell-based, mouse; details: doxorubicin vs control treatment
Method: Total RNA was prepared using the miRVana extraction kit (Applied Biosystems, Austin, Tex., United States of America). 1 μg of total RNA was reverse transcribed into cDNA using the iScript cDNA synthesis kit (BioRad, Hercules, Calif., United States of America). Real-time PCR was performed on an ABI7900HT Fast Real-Time PCR System using Power SYBRGreen PCR Mix (Applied Biosystems). PCR products were verified by melting curves. The threshold cycle (CT) values for each gene were normalized to expression levels of β-actin. The primers used were as follows: mouse iNOS, forward 5′-[…]-3′ (SEQ ID NO: 22); reverse 5′-[…]-3′ (SEQ ID NO: 23); the same β-actin primers were used for both human and mouse cell lines, forward 5′-[…]-3′ (SEQ ID NO: 24); and reverse 5′-[…]-3′ (SEQ ID NO: 25).

[3] = test system: HIF-1α; experiment: Western blotting of HIF-1α in 4T1ODD-luc cells; type: cell-based, mouse; details: normoxic, total cell lysate and nuclear extraction, 48 hours post-treatment
Method: (§2) Cell nuclear proteins were extracted using the NucBuster protein extraction kit (Novagen, Gibbstown, N.J., United States of America). Total cell lysates or cell nuclear extractions were quantified using a protein assay reagent (Bio-Rad). Equal amounts of protein sample were separated by Bis-HCl gel (Bio-Rad) and transferred to a […] Immun-Blot PVDF membrane (Bio-Rad).

[4] = test system: nitric oxide; experiment: Flow cytometry of intracellular nitric oxide (DAF-FM) in 4T1ODD-luc cells; type: cell-based, mouse; details: 1 μg/ml and 5 μg/ml doxorubicin, 48 hours, vs control
Method: To detect intracellular nitric oxide levels, 1×10^6 4 T1ODD-luc cells were plated per 10-cm cell culture dish with 8 ml of cell culture medium. Doxorubicin (1 μg/ml and 5 μg/ml) or an equal volume of control solvent was added into the cell culture medium the next day and treatment continued for 48 hours. […] Equal amounts of solvent were added for the control group. To quantify intracellular nitric oxide, a single cell suspension was made after trypsinization. 2 ml of 5 uM nitric oxide-specific probe DAF-FM diacetate (4-amino-5-methylamino-2′,7′-difluorofluorescein diacetate) (Invitrogen) were incubated with each cell sample at room temperature in darkness for 30 minutes. The cells were washed with PBS and centrifuged to remove the excess DAF-FM diacetate probe. The cells were resuspended into 500 ul of phenol-free DMEM and incubated for another 20 minutes for complete intracellular deacetylation of the probe. The mean fluorescence intensity of the deacetylated DAF-FM reacted with nitric oxide was quantified by FACSCalibur flow cytometer in FITC channel (Becton Dickinson, Franklin Lakes, N.J., United States of America).

[5] = test system: tumor-activated macrophages; experiment: CD68 staining of tumor-activated macrophages in orthotopic 4T1ODD-luc tumors; type: in vivo, mice; details: doxorubicin-treated vs saline-treated tumors
Method: as §1

[6] = test system: HIF-1α; experiment: HIF-1α ODD-luciferase reporter in normoxic 4T1ODD-luc cells; type: cell-based, mouse
Method: (§3) HIF-1α ODD-luciferase reporter activity was detected and quantified by the Xenogen IVIS bioluminescence imaging system (Xenogen Corporation, Alameda, Calif., United States of America) as previously described (Li et al., 2007). For in vitro imaging of cultured cells, 1×10^5 4 T1ODD-luc cells per well of 12-well plates were cultured with 2 ml culture medium for 24 hours. Then the cells were treated with doxorubicin hydrochloride (0.1, 1, or 10 μg/ml, Bedford Laboratories, Bedford, Ohio, United States of America) or an equal volume of control vehicle for 3 days under normoxic conditions (21% O2, 5% CO2). […] The activity of HIF-1α luciferase reporter was quantified daily. In animal studies, the bioluminescence of each tumor was detected on day 0 (before doxorubicin treatment) and on post-treatment days 1-7, 10, 13, and 16. During each imaging session mice were anesthetized with inhaled isoflurane and imaged 10 minutes after intraperitoneal (i.p.) injection of luciferin (150 mg/kg). Tumor bioluminescence intensity was normalized to the tumor volume at each time point.

[7] = test system: HIF-1α; experiment: Immunohistochemical staining of HIF-1α in orthotopic 4T1ODD-luc tumors; type: in vivo, mice; details: MTD doxorubicin vs saline, post-treatment days 1, 4, and 7
Method: as §1

[8] = test system: STAT1; experiment: Western blotting of STAT1 and phospho-STAT1 in 4T1ODD-luc cells; type: cell-based, mouse; details: doxorubicin 1 μg/ml
Method: as §2

[9] = test system: iNOS; experiment: Western blotting of iNOS in 4T1ODD-luc cells; type: cell-based, mouse
Method: as §2

[10] = test system: hypoxic tumor fraction; experiment: Pimonidazole staining of tumor hypoxia in orthotopic 4T1ODD-luc tumors; type: in vivo, mice; details: doxorubicin-treated vs control tumors
Method: as §1

[11] = test system: tumor vasculature; experiment: Fluorescent staining of tumor vasculature in orthotopic 4T1ODD-luc tumors; type: in vivo, mice
Method: Five mice from a doxorubicin-treated group or a control group that received saline were sacrificed on days 0, 1, 4, 7 and 16. The hypoxia marker pimonidazole (70 mg/kg i.p., NPI, Raleigh, N.C., United States of America) and the perfusion marker dye Hoechst 33342 (1 mg/mouse i.v., Sigma-Aldrich) were administered as previously described (Cao et al., 2005). Upon excision, tumors were snap-frozen in liquid nitrogen, stored at −80° C., and cut into 10 μm frozen sections. HIF-1α fluorescent staining was performed with anti-HIF-1α antibody (Novus). Direct pimonidazole labeling was performed using Hypoxyprobe (mouse monoclonal IgG1, NPI, Raleigh, N.C., United States of America) and Zenon Alexa Fluor 555 mouse IgG labeling kit (Invitrogen). Entire tumor sections were imaged by scanning fluorescent microscopy. Individual scanned images were then reconstructed into one composite image of the entire section by Metamorph. Tumor vasculature was stained by fluorescein-labeled Griffonia simplicifolia lectin I (isolectin B4) (1:200 dilution, Vector Laboratories, Burlingame, Calif., United States of America) as previously described (Cao et al., 2007). Eight random fields (10×) per frozen section were analyzed to determine the mean tumor vascular fraction as the percentage of vessel area in total tumor area in each field. Cell proliferation was determined by immunostaining with a rabbit polyclonal anti-Ki67 antibody (ab15580, 1:100 dilution, Abcam, Cambridge, Massachusettes, United States of America) and an Alexa 594-conjugated goat anti-rabbit IgG antibody (1:300 dilution, Invitrogen). Tumor activated macrophages were stained with rat anti-mouse CD68 antibody (1:100 dilution, Serotec, Raleigh, N.C., United States of America) and an Alexa 488-conjugated anti-rat IgG antibody (1:200 dilution, Invitrogen).

[12] = test system: HIF-1α; experiment: Bioluminescent imaging of orthotopic 4T1ODD-luc tumors in nude mice; type: in vivo
Method: as §3
5×10^6 4 T1ODD-luc tumor cells in 200 μl PBS were injected orthotopically in the right thoracic mammary fat pad of female NCr/nu nude mice (Moeller et al., 2004). Tumor volumes were calculated as follows: volume=(length×width^2×π)/6. When tumor size reached 7 mm in diameter, animals were randomized into two groups: the control mice were injected with 100 μl saline and the treated mice were injected once with the maximal tolerated dose (MTD) of doxorubicin (10 mg/kg) via tail vein (Vanhoefer et al., 1997). Tumor volume and luciferase reporter activity in vivo were measured on days 0, 1-7, 10, 13 and 16.

[13] = test system: HIF-1α; experiment: Western blotting of HIF-1α in MCF-7 cells; type: cell-based, human; details: normoxic MCF-7 cells
Method: as §2

[14] = test system: VEGF; experiment: Mouse VEGF ELISA of 4T1ODD-luc conditioned medium; type: cell-based; details: normoxic, doxorubicin 0.1, 1, and 10 μg/ml
Method: 1×10^5 4 T1ODD-luc cells per well of 12-well plate were cultured with 1 ml cell culture medium overnight. The cells were treated with 0.1, 1, or 10 μg/ml of doxorubicin or without doxorubicin for 24, 48, and 72 hours. Secreted mouse VEGF in the conditioned medium at each time point was quantified by mouse VEGF ELISA kit (R & D Systems, Minneapolis, Minn., United States of America) and normalized to the number of living cells.

COc1cccc2c1C(=O)c1c(O)c3c(c(O)c1C2=O)C[C@@](O)(C(=O)CO)C[C@@H]3O[C@H]1C[C@H](N)[C@H](O)[C@H](C)O1 [doxorubicin, doxorubicin hydrochloride]
perfused tumor fraction (Hoechst 33342 labeling) [1]: no significant difference
iNOS mRNA level [2]: significantly enhanced iNOS transcription
HIF-1α protein expression [3]: enhanced
intracellular NO levels [4]: increased intracellular NO levels
fraction of tumor-activated macrophages (CD68) [5]: no significant difference
HIF-1α reporter activity, comparison of concentrations ([6]; 1 μg/ml doxorubicin): most potent upregulation
HIF-1α reporter activity ([6]; doxorubicin 0.1, 1, or 10 μg/ml, 48 hours post-treatment): significant increase in HIF-1α reporter activity
tumor HIF-1α positive fraction [7]: significantly increased the HIF-1α fraction
STAT1 expression [8]: upregulated the expression of STAT1
STAT1 phosphorylation (Tyr701 and Ser727) [8]: promoted the activation of STAT1
iNOS expression ([9]; doxorubicin 1 μg/ml, normoxic conditions): stimulated iNOS expression
iNOS expression ([9]; doxorubicin alone, first 24 hours post-treatment): initial decrease in iNOS expression
iNOS expression ([9]; doxorubicin, 48 hours post-treatment): increase in iNOS expression
hypoxic tumor fraction (pimonidazole staining) [10]: no significant difference
relative tumor vascular fraction ([11]; doxorubicin vs control, first 24 hours): significant decrease in tumor vascular fraction
tumor vessels by fluorescent staining ([11]; doxorubicin vs saline, day 4 post-treatment): more tumor vessels
relative tumor vascular fraction ([11]; doxorubicin vs saline, day 16): still significantly higher compared to the saline-treated tumors
mean relative tumor vascular fraction ([11]; doxorubicin-treated tumors, post-treatment day 4 (peak)): even higher than before chemotherapy treatment
HIF-1α reporter activity in tumors on day 16 ([12]; doxorubicin 10 mg/kg i.v. once vs saline, day 16): fell to a level similar to that in the control tumors
HIF-1α reporter activity in tumors ([12]; doxorubicin 10 mg/kg i.v. once vs saline, from 3 days post-treatment): significantly elevated the HIF-1α reporter activity
peak in HIF-1 activation after doxorubicin treatment ([12]; in vivo): 3 to 5 days
temporal course of doxorubicin-induced normoxic HIF-1α accumulation ([12]; mouse, in vivo): 3-5 days post-treatment
HIF-1α protein [13]: led to normoxic HIF-1α accumulation
secreted VEGF level [14]: significantly elevated the secreted VEGF level
